These results are taken from ChEMBL document CHEMBL1811893, “Seco-eremophiladiolides and eremophilane glucosides from Pittocaulon velatum” (J Nat Prod, 2011).

The assay has as its system Rattus norvegicus. Kind of assay: Antiinflammatory activity in Lewis rat assessed as inhibition of TPA-induced ear edema. Format: functional, organism-based.

Activity calls are given as the source filed them. The calls are words filed in the database; no cut-off is given here.

Regarding `CC1=C([C@@H]2OC(=O)[C@@H]3CCC[C@H](C)[C@]32C)C(=O)OC1`, the outcome was inactive.
For `C/C(=C\O[C@@H]1O[C@H](CO)[C@@H](O)[C@H](O)[C@H]1O)[C@@H]1C[C@@]2(C)C(=CC1=O)CC[C@@H](O)[C@@H]2C` the value was “inactive”; for `C/C(=C\O[C@@H]1O[C@H](CO)[C@@H](O)[C@H](O)[C@H]1O)[C@@H]1C[C@@]2(C)C(=CC1=O)CC[C@H](O)[C@@H]2C`, “inactive”.
Under `Cc1coc2c1[C@@H](OCC(C)C)[C@]1(C)[C@@H](C)CC[C@H]3O[C@]31C2=O` stands “inactive”; under `C[C@H]1C[C@@H](O)C[C@H]2C(=O)c3occ(CO)c3[C@@H](O)[C@]12C`, “inactive”.
In the case of `CC1=C([C@H]2OC(=O)[C@@H]3CCC[C@H](C)[C@@]23C)C(=O)OC1`, the outcome was inactive.
Consider `Cc1coc2c1[C@@H](OCC(C)C)[C@]1(C)[C@@H](C)CCC[C@H]1C2=O`, for which the outcome was inactive.
With `C/C(=C\O[C@@H]1O[C@H](CO)[C@@H](O)[C@H](O)[C@H]1O)[C@@H]1C[C@@]2(C)C(=CC1=O)CCC[C@@H]2C`, the outcome was inactive.
Take `C/C(=C\O[C@@H]1O[C@H](CO)[C@@H](O)[C@H](O)[C@H]1O)[C@@H]1C[C@@]2(C)C(=CC1=O)[C@H](O)CC[C@@H]2C`: the outcome was inactive.
